Assay results reported in paper PMC7309225, “Synthesis, Biodistribution, and Radiation Dosimetry of a Novel mGluR5 Radioligand: ^18F-AZD9272” (ACS Chemical Neuroscience, 2020).

Assays:
[1] = Stability of formulated radioligand in PBS (analytical radio-HPLC); assay type: physicochemical
Experimental: The radiochemical purity, identity, and stability of ^18F-AZD9272 was determined by using an analytical HPLC system which included a ACE RP column (C18, 3.9 Ø × 250 mm, 5 μm particle size), Merck-Hitatchi L-7100 Pump, L-7400 UV detector, and GM tube for radioactivity detection (VWR International). The mobile phase CH3CN/0.1% TFA with a gradient HPLC method (10–90% in 8 min) and flow rate of 3 mL/min was used to elute the product. The effluent was monitored with a UV absorbance detector (λ = 270 nm) coupled to a radioactive detector (b-flow, Beckman, Fullerton, CA). The retention time (Rt) of ^18F-AZD9272 was 4–5 min. The identity of ^18F-AZD9272 was confirmed by using HPLC with the coinjection of the authentic nonradioactive AZD9272 (3-fluoro-5-(3-(5-fluoropyridin-2-yl)-1,2,4-oxadiazol-5-yl)benzonitrile) standard.

[2] = Whole body PET and radiation dosimetry (OLINDA/EXM 1.1); assay type: in vivo, cynomolgus monkey; conditions: for Estimated radiation dose: human estimate, adult male model
Experimental: Two female cynomolgus monkeys (NHP3: 7420 g and NHP4: 6360 g) were used in this study. Anesthesia was induced by intramuscular injection of ketamine hydrochloride (approximately 10 mg/kg) at AFL and maintained by intravenous infusion of ketamine (4 mg/kg/h) and xylazine (0.4 mg/kg/h) with a pump. The body of the NHP was immobilized using a vacuum pad. Body temperature was maintained by using a Bair Hugger system (model 505, Arizant Healthcare, MN) and monitored with an esophageal thermometer. Heart rate, blood pressure, respiratory rate, and oxygen saturation were continuously monitored throughout the experiments. Fluid balance was maintained by continuous infusion of saline.
Whole-body PET scans were conducted using a GE Discovery PET/CT 710 system (GE Healthcare, Waukesha, WI). One low-dose CT scan was performed before intravenous administration of ^18F-AZD9272 for attenuation correction. Then five series of PET acquisitions, each covering five axial fields of view (AFOV), were conducted. The five PET series consisted of two 20 s × 5 AFOV, three 40 s × 5 AFOV, three 80 s × 5 AFOV, three 160 s × 5 AFOV, and eight 240 s × 5 AFOV. The total duration of the whole-body PET measurement was around 4 h. PET images were reconstructed with a 3D ordered-subset expectation maximization (OSEM) algorithm with three iterations and 18 subsets, including the time-of-flight information (VUE Point FX) and the point spread function correction (Sharp IR). A 2D Gaussian filter with 5.5 mm cutoff was used.
ROIs were drawn for the brain, heart, liver, lung, kidney, gall bladder, bone (lumbar vertebrae), urinary bladder, stomach, small intestine, spleen, and pancreas with the help of the CT images for anatomic landmarks. The time–activity curve was expressed as the percentage of the injected dose (%ID) calculated as follows: decay-corrected radioactivity (Bq/cc) × ROI volume (cc)/injected dose (Bq) × 100.
Estimates of the absorbed radiation dose in humans were calculated with OLINDA/EXM 1.1 (Organ Level INternal Dose Assessment Code) software, using the adult male (70 kg) reference model.[36] The fractional uptake in NHP organs was assumed to be equal to the uptake in human organs.

**Q.** What does the source list for `N#Cc1cc(F)cc(-c2nc(-c3ccc([18F])cn3)no2)c1` [^18F-AZD9272, 3-fluoro-5-(3-(5-[^18F]fluoropyridin-2-yl)-1,2,4-oxadiazol-5-yl)benzonitrile]?
**A.** Radiochemical purity after storage (stability) ([1]; 2 h after formulation in sterile phosphate buffered solution (pH = 7.4)): > 99%; Stability in PBS buffered solution ([1]; pH = 7.4, duration of 120 min): stable; Estimated radiation dose ([2]; LLI wall, NHP3): 26.8 μSv/MBq; Estimated radiation dose ([2]; LLI wall, NHP4): 27.9 μSv/MBq; Estimated radiation dose ([2]; LLI wall, mean): 27.4 μSv/MBq; Whole body organ uptake (PET) ([2]; NHP whole body): High uptakes were seen in liver and small intestine, followed by brain and kidney; Estimated radiation dose ([2]; ULI wall, NHP3): 65.7 μSv/MBq; Estimated radiation dose ([2]; ULI wall, NHP4): 69.4 μSv/MBq; Estimated radiation dose ([2]; ULI wall, mean): 67.6 μSv/MBq; Estimated radiation dose ([2]; adrenals, NHP3): 14.6 μSv/MBq; Estimated radiation dose ([2]; adrenals, NHP4): 14.1 μSv/MBq; Estimated radiation dose ([2]; adrenals, mean): 14.4 μSv/MBq; Estimated radiation dose ([2]; brain, NHP3): 13.0 μSv/MBq; Estimated radiation dose ([2]; brain, NHP4): 17.4 μSv/MBq; Estimated radiation dose ([2]; brain, mean): 15.2 μSv/MBq; Estimated radiation dose ([2]; breasts, NHP3): 8.0 μSv/MBq; Estimated radiation dose ([2]; breasts, NHP4): 7.9 μSv/MBq; Estimated radiation dose ([2]; breasts, mean): 7.9 μSv/MBq; Estimated radiation dose ([2]; effective dose, NHP3): 17.4 μSv/MBq; Estimated radiation dose ([2]; effective dose, NHP4): 17.4 μSv/MBq; Estimated radiation dose ([2]; effective dose, mean): 17.4 μSv/MBq; Estimated radiation dose ([2]; gallbladder wall, NHP3): 21.3 μSv/MBq; Estimated radiation dose ([2]; gallbladder wall, NHP4): 21.1 μSv/MBq; Estimated radiation dose ([2]; gallbladder wall, mean): 21.2 μSv/MBq; Estimated radiation dose ([2]; heart wall, NHP3): 17.5 μSv/MBq; Estimated radiation dose ([2]; heart wall, NHP4): 19.0 μSv/MBq; Estimated radiation dose ([2]; heart wall, mean): 18.3 μSv/MBq; Human radiation dose estimate, upper large intestine (ULI) wall ([2]; highest-dose organ): around 0.068 mSv/MBq; Radioactivity that can be injected to humans ([2]; if the limit is 10 mSv for the total radiation exposure): 570 MBq; Estimated radiation dose ([2]; kidneys, NHP3): 42.3 μSv/MBq; Estimated radiation dose ([2]; kidneys, NHP4): 29.6 μSv/MBq; Estimated radiation dose ([2]; kidneys, mean): 36.0 μSv/MBq; Estimated radiation dose ([2]; liver, NHP3): 47.0 μSv/MBq; Estimated radiation dose ([2]; liver, NHP4): 45.7 μSv/MBq; Estimated radiation dose ([2]; liver, mean): 46.4 μSv/MBq; Estimated radiation dose ([2]; lungs, NHP3): 12.7 μSv/MBq; Estimated radiation dose ([2]; lungs, NHP4): 11.8 μSv/MBq; Estimated radiation dose ([2]; lungs, mean): 12.3 μSv/MBq; Human radiation dose estimate, most organs ([2]; most organs): 0.01–0.02 mSv/MBq; Estimated radiation dose ([2]; muscle, NHP3): 10.1 μSv/MBq; Estimated radiation dose ([2]; muscle, NHP4): 10.0 μSv/MBq; Estimated radiation dose ([2]; muscle, mean): 10.1 μSv/MBq; Estimated radiation dose ([2]; osteogenic cells, NHP3): 14.5 μSv/MBq; Estimated radiation dose ([2]; osteogenic cells, NHP4): 14.5 μSv/MBq; Estimated radiation dose ([2]; osteogenic cells, mean): 14.5 μSv/MBq; Estimated radiation dose ([2]; ovaries, NHP3): 18.2 μSv/MBq; Estimated radiation dose ([2]; ovaries, NHP4): 18.6 μSv/MBq; Estimated radiation dose ([2]; ovaries, mean): 18.4 μSv/MBq; Estimated radiation dose ([2]; pancreas, NHP3): 16.4 μSv/MBq; Estimated radiation dose ([2]; pancreas, NHP4): 15.4 μSv/MBq; Estimated radiation dose ([2]; pancreas, mean): 15.9 μSv/MBq; Estimated radiation dose ([2]; red marrow, NHP3): 10.7 μSv/MBq; Estimated radiation dose ([2]; red marrow, NHP4): 10.7 μSv/MBq; Estimated radiation dose ([2]; red marrow, mean): 10.7 μSv/MBq; Estimated radiation dose ([2]; skin, NHP3): 7.4 μSv/MBq; Estimated radiation dose ([2]; skin, NHP4): 7.4 μSv/MBq; Estimated radiation dose ([2]; skin, mean): 7.4 μSv/MBq; Estimated radiation dose ([2]; small intestine, NHP3): 58.9 μSv/MBq; Estimated radiation dose ([2]; small intestine, NHP4): 62.1 μSv/MBq; Estimated radiation dose ([2]; small intestine, mean): 60.5 μSv/MBq; Estimated radiation dose ([2]; spleen, NHP3): 9.6 μSv/MBq; Estimated radiation dose ([2]; spleen, NHP4): 8.4 μSv/MBq; Estimated radiation dose ([2]; spleen, mean): 9.0 μSv/MBq; Estimated radiation dose ([2]; stomach wall, NHP3): 13.2 μSv/MBq; Estimated radiation dose ([2]; stomach wall, NHP4): 13.1 μSv/MBq; Estimated radiation dose ([2]; stomach wall, mean): 13.2 μSv/MBq; Estimated radiation dose ([2]; testes, NHP3): 8.7 μSv/MBq; Estimated radiation dose ([2]; testes, NHP4): 8.6 μSv/MBq; Estimated radiation dose ([2]; testes, mean): 8.7 μSv/MBq; Estimated radiation dose ([2]; thymus, NHP3): 9.7 μSv/MBq; Estimated radiation dose ([2]; thymus, NHP4): 9.6 μSv/MBq; Estimated radiation dose ([2]; thymus, mean): 9.6 μSv/MBq; Estimated radiation dose ([2]; thyroid, NHP3): 9.1 μSv/MBq; Estimated radiation dose ([2]; thyroid, NHP4): 9.1 μSv/MBq; Estimated radiation dose ([2]; thyroid, mean): 9.1 μSv/MBq; Estimated radiation dose ([2]; total body, NHP3): 12.2 μSv/MBq; Estimated radiation dose ([2]; total body, NHP4): 12.1 μSv/MBq; Estimated radiation dose ([2]; total body, mean): 12.2 μSv/MBq; Estimated radiation dose ([2]; urinary bladder wall, NHP3): 11.3 μSv/MBq; Estimated radiation dose ([2]; urinary bladder wall, NHP4): 11.4 μSv/MBq; Estimated radiation dose ([2]; urinary bladder wall, mean): 11.4 μSv/MBq; Estimated radiation dose ([2]; uterus, NHP3): 16.1 μSv/MBq; Estimated radiation dose ([2]; uterus, NHP4): 16.3 μSv/MBq; Estimated radiation dose ([2]; uterus, mean): 16.2 μSv/MBq
